These results are taken from US11672799B2, “1,4-disubstituted pyridazine quinolne analogs there of and methods for treating SMN-deficiency-related conditions” (Novartis AG, priority 2013, dated 2023).

This assay has as its system SMN protein. The assay is described as follows: cellular SMN ELISA (SMN protein elevation) in myoblast cell line from SMNdelta7 mouse model. The class given is cell-based. How it is done: A cellular SMN ELISA was used to measure the effects of low molecular weight compounds on SMN protein elevation. Cells from a myoblast cell line derived from the SMNdelta7 mouse model (kind gift from Steve Burden, NYU) were seeded into a 384-well plate at a density of 3000 cells/well and treated with compounds for 24 hours. ELISA capture plates were prepared by coating 384-well plates (Immulon 4HBX) with 0.5 ug/mL of anti-SMN mAb (BD Science, Catalog number 610647) at 4° C. overnight. The plates were washed 5 times with 110 uL of PBS-Tween (0.05% Tween-20, PBST), blocked with 100 uL of 1% BSA in PBST for 2 hours and washed (5 times) with 100 uL of PBST. After 24 hours of compound treatment cells were lysed in a modified RIPA-buffer, on ice for 1 hour. 20 uL of lysate and 20 uL of 1% BSA were then added to the ELISA capture plates and incubated at 4° C. overnight. Plates were washed (5 times) with PBST and then incubated with 1:100 dilution of primary rabbit anti-SMN polyclonal antibody (Santa cruz, Catalog number SC-15320) at room temperature for 1 hour and subsequently washed (5 times) with 110 uL of PBST. This was followed by addition of 1:100 Goat anti-Rabbit IgG-HRP linked (Cell Signaling, Catalog number 7074) secondary antibody for 1 hour. Plates were then washed with PBST and incubated with 40 uL TMB substrate (Cell Signaling, Catalog number 7004 L) at room temperature for 1-10 minutes with shaking. The reaction was stopped by addition of 40 uL of stop solution (Cell signaling, Catalog number 7002 L) and absorption was measured at 450 nm. Data was reported as fold activation over DMSO control, and EC50.
ELISA assay condition 1: compound concentration range 20 nM-10 uM; ELISA assay condition 2: compound concentration 100 pM-10 uM. Data generated in Biological Example 1 using ELISA conditions 1 or 2.

Where [1] appears, read: Biological Example 1, SMN ELISA, SMNdelta7 mouse myoblasts, 24 hours compound treatment.
Setting [2] is: Biological Example 1, SMN ELISA, SMNdelta7 mouse myoblasts, 24 hours compound treatment, read-out: SMN Activity (EC50).
Where [3] appears, read: comparison of unsubstituted, ortho-hydroxy and ortho-alkoxy pyridazines, as in Biological Example 1.
[4] abbreviates: comparison of unsubstituted, ortho-hydroxy and ortho-alkoxy pyridazines, as in Biological Example 1, read-out: SMN ELISA EC50.

Where two headings read alike, the source gives them in different places.

As usually defined, the EC50 is the concentration at which the effect is half-maximal.

Take `CN(C)c1ccnc2cc(O)c(-c3ccc(N(C)C4CC(C)(C)NC(C)(C)C4)nn3)cc12` [Example 21-1, 4-(dimethylamino)-6-(6-(methyl(2,2,6,6-tetramethylpiperidin-4-yl)amino)pyridazin-3-yl)quinolin-7-ol]: the “SMN Activity (fold activation over DMSO control)” value under setting [1] was 3.01 fold. For the same molecule, the half-maximal effective concentration (EC50) under setting [2] is 60 nM.
For the molecule `Cc1cc2cc(O)c(-c3ccc(N4CCNCC4)nn3)cc2cn1` [Example 37-1, 3-methyl-7-(6-(piperazin-1-yl)pyridazin-3-yl)isoquinolin-6-ol], under setting [1], the “SMN Activity (fold activation over DMSO control)” value came out at 2.33 fold. The EC50 under setting [2] is 124 nM.
Regarding `CN(c1ccc(-c2cc3c(C4CC4)nccc3cc2O)nn1)C1CC(C)(C)NC(C)(C)C1` [Example 3-5, 1-cyclopropyl-7-(6-(methyl(2,2,6,6-tetramethylpiperidin-4-yl)amino)pyridazin-3-yl)isoquinolin-6-ol], the “SMN Activity (fold activation over DMSO control)” value under setting [1] amounted to 2.54 fold. In addition, the EC50 under setting [2] worked out at 14 nM.
For the molecule `CN1C(=O)CCc2cc(-c3ccc(N(C)C4CC(C)(C)NC(C)(C)C4)nn3)c(O)cc21` [Example 24-1, 7-hydroxy-1-methyl-6-(6-(methyl(2,2,6,6-tetramethylpiperidin-4-yl)amino)pyridazin-3-yl)-3,4-dihydroquinolin-2(1H)-one], the “SMN Activity (fold activation over DMSO control)” value under setting [1] was 1.74 fold. The half-maximal effective concentration (EC50) under setting [2] was 71 nM.
For the molecule `CN(c1ccc(-c2cc3ccc(=O)[nH]c3cc2O)nn1)C1CC(C)(C)NC(C)(C)C1` [Example 9-1, 7-hydroxy-6-(6-(methyl(2,2,6,6-tetramethylpiperidin-4-yl)amino)pyridazin-3-yl)quinolin-2(1H)-one], the “SMN Activity (fold activation over DMSO control)” value under setting [1] is given as 2.25 fold. Besides, under setting [2], the EC50 came to 30 nM.
For `CN(c1ccc(-c2cc3ccc(C#N)nc3cc2O)nn1)C1CC(C)(C)NC(C)(C)C1` [Example 26-2, 7-hydroxy-6-(6-(methyl(2,2,6,6-tetramethylpiperidin-4-yl)amino)pyridazin-3-yl)quinoline-2-carbonitrile] the same measures were 3.14 fold and 7 nM.
On to `Cc1cc(C2CC2)c2cc(-c3ccc(N(C)C4CC(C)(C)NC(C)(C)C4)nn3)c(O)cc2n1` [Example 20-3, 4-cyclopropyl-2-methyl-6-(6-(methyl(2,2,6,6-tetramethylpiperidin-4-yl)amino)pyridazin-3-yl)quinolin-7-ol], for which the “SMN Activity (fold activation over DMSO control)” value under setting [1] amounted to 2.72 fold. Besides, the EC50 under setting [2] was found to be 65 nM.
For the molecule `COc1ccnc2cc(O)c(-c3ccc(N(C)C4CC(C)(C)NC(C)(C)C4)nn3)cc12` [Example 19-1, 4-methoxy-6-(6-(methyl(2,2,6,6-tetramethylpiperidin-4-yl)amino)pyridazin-3-yl)quinolin-7-ol], under setting [1], the “SMN Activity (fold activation over DMSO control)” value is 2.65 fold. Besides, the EC50 under setting [2] is 10 nM.
For `CN(c1ccc(-c2cc3c(Cl)ccnc3cc2O)nn1)C1CC(C)(C)NC(C)(C)C1` [Preparation 12, 4-chloro-6-(6-(methyl(2,2,6,6-tetramethylpiperidin-4-yl)amino)pyridazin-3-yl)quinolin-7-ol] the same measures were 2.6 fold and 30 nM.
The molecule `CN(c1ccc(-c2ccc3cnccc3c2)nn1)C1CC(C)(C)NC(C)(C)C1` [drawing 138 R = H] had a Fold activation under setting [3] of 2.7. Also, the EC50 under setting [4] came out at 320 nM.
Consider `CN(c1ccc(-c2cc3ccc(=O)n(C)c3cc2O)nn1)C1CC(C)(C)NC(C)(C)C1` [Example 9-2, 7-hydroxy-1-methyl-6-(6-(methyl(2,2,6,6-tetramethylpiperidin-4-yl)amino)pyridazin-3-yl)quinolin-2(1H)-one], for which the “SMN Activity (fold activation over DMSO control)” value under setting [1] came to 2.25 fold. Moreover, under setting [2], the EC50 amounted to 7 nM.
Take `CN(c1ccc(-c2cc3c(O)nccc3cc2O)nn1)C1CC(C)(C)NC(C)(C)C1` [Example 3-6, 7-(6-(methyl(2,2,6,6-tetramethylpiperidin-4-yl)amino)pyridazin-3-yl)isoquinoline-1,6-diol]: under setting [1], the “SMN Activity (fold activation over DMSO control)” value was determined as 2.43 fold. In addition, under setting [2], the EC50 is 8 nM.
For `CN(c1ccc(-c2cc3c(C#N)nccc3cc2O)nn1)C1CC(C)(C)NC(C)(C)C1` [Example 3-7, 6-hydroxy-7-(6-(methyl(2,2,6,6-tetramethylpiperidin-4-yl)amino)pyridazin-3-yl)isoquinoline-1-carbonitrile] the same measures were 2.9 fold and 2 nM.
Take `Cc1cnc2cc(-c3ccc(N(C)C4CC(C)(C)NC(C)(C)C4)nn3)c(O)cc2n1` [Example 18-3, 3-methyl-7-(6-(methyl(2,2,6,6-tetramethylpiperidin-4-yl)amino)pyridazin-3-yl)quinoxalin-6-ol]: the “SMN Activity (fold activation over DMSO control)” value under setting [1] came out at 2.72 fold. In addition, the EC50 under setting [2] is 16 nM.
For `CN1C[C@@H]2CN(c3ccc(-c4cc5cnccc5cc4O)nn3)C[C@@H]2C1` [Example 3-4, 7-(6-((3aR,6aS)-5-methylhexahydropyrrolo[3,4-c]pyrrol-2(1H)-yl)pyridazin-3-yl)isoquinolin-6-ol] the same measures were 2.3 fold and 60 nM.
On to `CN(c1ccc(-c2cc3ncccc3cc2O)nn1)C1CC(C)(C)NC(C)(C)C1` [Example 6-1, 7-(6-(methyl(2,2,6,6-tetramethylpiperidin-4-yl)amino)pyridazin-3-yl)quinolin-6-ol], for which the “SMN Activity (fold activation over DMSO control)” value under setting [1] was found to be 2.82 fold. The EC50 is 7 nM under setting [2] and 7 nM under setting [4]. Further, the Fold activation under setting [3] amounted to 2.8.
As for `Cc1cnc2cc(-c3ccc(N(C)C4CC(C)(C)NC(C)(C)C4)nn3)c(O)cc2c1` [Example 15-3, 3-methyl-7-(6-(methyl(2,2,6,6-tetramethylpiperidin-4-yl)amino)pyridazin-3-yl)quinolin-6-ol], the “SMN Activity (fold activation over DMSO control)” value under setting [1] is 3.28 fold. Besides, the EC50 under setting [2] came out at 7 nM.
`Cc1ccc2cc(O)c(-c3ccc(N(C)C4CC(C)(C)NC(C)(C)C4)nn3)cc2n1` [Example 6-2, 2-methyl-7-(6-(methyl(2,2,6,6-tetramethylpiperidin-4-yl)amino)pyridazin-3-yl)quinolin-6-ol]: the “SMN Activity (fold activation over DMSO control)” value under setting [1] was determined as 3.2 fold. In addition, the EC50 under setting [2] turned out to be 4 nM.
`N#Cc1ccc2cc(O)c(-c3ccc(N4CCNCC4)nn3)cc2n1` [Example 27-1, 6-hydroxy-7-(6-(piperazin-1-yl)pyridazin-3-yl)quinoline-2-carbonitrile]: the “SMN Activity (fold activation over DMSO control)” value under setting [1] is recorded as 2.49 fold. Moreover, under setting [2], the EC50 came out at 46 nM.
Regarding `Cc1cc(N2CCC2)c2cc(-c3ccc(N(C)C4CC(C)(C)NC(C)(C)C4)nn3)c(O)cc2n1` [Example 20-1, 4-(azetidin-1-yl)-2-methyl-6-(6-(methyl(2,2,6,6-tetramethylpiperidin-4-yl)amino)pyridazin-3-yl)quinolin-7-ol], the “SMN Activity (fold activation over DMSO control)” value under setting [1] turned out to be 2.86 fold. In addition, the 50% effective concentration (EC50) under setting [2] was 84 nM.
`COc1ccnc2cc(-c3ccc(N(C)C4CC(C)(C)NC(C)(C)C4)nn3)c(O)cc12` [Example 12-1, 4-methoxy-7-(6-(methyl(2,2,6,6-tetramethylpiperidin-4-yl)amino)pyridazin-3-yl)quinolin-6-ol]: the “SMN Activity (fold activation over DMSO control)” value under setting [1] is on record as 2.4 fold. The EC50 under setting [2] came out at 3 nM.
The matching figures for `CN(c1ccc(-c2cc3cc(C4CCOCC4)cnc3cc2O)nn1)C1CC(C)(C)NC(C)(C)C1` [Example 14-1, 6-(6-(methyl(2,2,6,6-tetramethylpiperidin-4-yl)amino)pyridazin-3-yl)-3-(tetrahydro-2H-pyran-4-yl)quinolin-7-ol]: 2.91 fold and 63 nM.
As for `Cc1cc(C2CCOCC2)c2cc(-c3ccc(N(C)C4CC(C)(C)NC(C)(C)C4)nn3)c(O)cc2n1` [Example 20-5, 2-methyl-6-(6-(methyl(2,2,6,6-tetramethylpiperidin-4-yl)amino)pyridazin-3-yl)-4-(tetrahydro-2H-pyran-4-yl)quinolin-7-ol], the “SMN Activity (fold activation over DMSO control)” value under setting [1] is listed as 2.69 fold. Also, the EC50 under setting [2] came to 286 nM.
In the case of `Cc1cc(N2CCCC2)c2cc(-c3ccc(N(C)C4CC(C)(C)NC(C)(C)C4)nn3)c(O)cc2n1` [Example 10-2, 2-methyl-6-(6-(methyl(2,2,6,6-tetramethylpiperidin-4-yl)amino)pyridazin-3-yl)-4-(pyrrolidin-1-yl)quinolin-7-ol], the “SMN Activity (fold activation over DMSO control)” value under setting [1] was 2.6 fold. The EC50 under setting [2] stood at 65 nM.
